In the supplement of paper PMC10307832:

Experiments:
Assay in all cases: relative viability (nuclei count vs DMSO), 5 days (fraction); higher = more cells survive
GW-2580 + Bortezomib = compound: COC1=CC=C(C=C1)COC2=C(C=C(C=C2)CC3=CN=C(N=C3N)N)OC [GW-2580] + CC(C)C[C@H](NC(=O)[C@H](Cc1ccccc1)NC(=O)c1cnccn1)B(O)O [Bortezomib] (partner 0.002 µM)
In short: (§1)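 The day after seeding in 1536-well plates, lung cancer cell lines were treated by pin tool with a single drug, or with a fixed anchor-drug dose together with five library-drug doses (not always all listed) in √10 steps. After 5 days, a combined fix-and-stain solution (final 0.05% Triton X-100, 1% formaldehyde, 1 ug/ml Hoechst) was added. Nuclei counted on 4× images gave relative viability as treated counts over vehicle counts, reported as the median of duplicate plates.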

GW-2580 + Crizotinib = compound: COC1=CC=C(C=C1)COC2=C(C=C(C=C2)CC3=CN=C(N=C3N)N)OC [GW-2580] + C[C@@H](Oc1cc(-c2cnn(C3CCNCC3)c2)cnc1N)c1c(Cl)ccc(F)c1Cl [Crizotinib] (partner 1 µM)
In short: as §1

GW-2580 + Dasatinib = compound: COC1=CC=C(C=C1)COC2=C(C=C(C=C2)CC3=CN=C(N=C3N)N)OC [GW-2580] + Cc1nc(Nc2ncc(C(=O)Nc3c(C)cccc3Cl)s2)cc(N2CCN(CCO)CC2)n1 [Dasatinib] (partner 0.075 µM)
In short: as §1

Fedratinib + Trametinib = compound: Cc1cnc(Nc2ccc(OCCN3CCCC3)cc2)nc1Nc1cccc(S(=O)(=O)NC(C)(C)C)c1 [Fedratinib] + CC(=O)Nc1cccc(-n2c(=O)n(C3CC3)c(=O)c3c(Nc4ccc(I)cc4F)n(C)c(=O)c(C)c32)c1 [Trametinib] (partner 0.02 µM)
In short: as §1

Fedratinib + Foretinib = compound: Cc1cnc(Nc2ccc(OCCN3CCCC3)cc2)nc1Nc1cccc(S(=O)(=O)NC(C)(C)C)c1 [Fedratinib] + COc1cc2c(Oc3ccc(NC(=O)C4(C(=O)Nc5ccc(F)cc5)CC4)cc3F)ccnc2cc1OCCCN1CCOCC1 [Foretinib] (partner 0.25 µM)
In short: as §1

Row | Cell Line | relative viability (GW-2580 + Bortezomib; first compound 0.08 µM) | relative viability (GW-2580 + Bortezomib; first compound 0.8 µM) | relative viability (GW-2580 + Bortezomib; first compound 2.53 µM) | relative viability (GW-2580 + Bortezomib; first compound 8 µM) | relative viability (GW-2580 + Crizotinib; first compound 0.08 µM) | relative viability (GW-2580 + Crizotinib; first compound 0.8 µM) | relative viability (GW-2580 + Crizotinib; first compound 2.53 µM) | relative viability (GW-2580 + Crizotinib; first compound 8 µM) | relative viability (GW-2580 + Dasatinib; first compound 0.08 µM) | relative viability (GW-2580 + Dasatinib; first compound 0.8 µM) | relative viability (GW-2580 + Dasatinib; first compound 2.53 µM) | relative viability (GW-2580 + Dasatinib; first compound 8 µM) | relative viability (Fedratinib + Trametinib; first compound 0.1 µM) | relative viability (Fedratinib + Trametinib; first compound 0.3162 µM) | relative viability (Fedratinib + Trametinib; first compound 1 µM) | relative viability (Fedratinib + Foretinib; first compound 0.1 µM) | relative viability (Fedratinib + Foretinib; first compound 0.3162 µM) | relative viability (Fedratinib + Foretinib; first compound 1 µM)
1 | H3255 | 0.542 | 0.998 | 0.579 | 0.749 | 0.837 | 0.963 | 0.744 | 0.914 | 0.287 | 0.436 | 0.345 | 0.281 | 0.506 | 0.69 | 0.706 | 0.82 | 0.766 | 0.877
2 | NCI-H1437 | 0.654 | 0.569 | 0.518 | 0.516 | 1.01 | 1.01 | 0.828 | 0.77 | 0.422 | 0.411 | 0.36 | 0.271 | 0.492 | 0.561 | 0.564 | 1.25 | 1.25 | 1.33
3 | LU99A | 1.1 | 1.15 | 0.986 | 1.17 | 0.662 | 0.633 | 0.524 | 0.535 | 0.609 | 0.651 | 0.472 | 0.465 | 0.577 | 0.593 | 0.477 | 0.717 | 0.858 | 0.644
4 | HCC-827 | 0.964 | 1.12 | 1.01 | 0.952 | 0.874 | 0.933 | 0.863 | 0.868 | 0.309 | 0.413 | 0.283 | 0.245 | 0.515 | 0.567 | 0.503 | 1.03 | 1.07 | 0.96
5 | HCC-366 | 1.22 | 1.08 | 1.24 | 1.12 | 0.618 | 0.581 | 0.334 | 0.509 | 0.711 | 0.759 | 0.603 | 0.563 | 0.363 | 0.36 | 0.257 | 0.918 | 0.922 | 0.911
6 | BEN | 0.674 | 0.879 | 0.55 | 0.799 | 0.937 | 1 | 0.785 | 0.958 | 0.267 | 0.397 | 0.222 | 0.308 | 0.846 | 0.945 | 0.926 | 0.685 | 0.683 | 0.472
7 | NCI-H23 | 0.979 | 0.988 | 1.12 | 1.04 | 0.431 | 0.508 | 0.506 | 0.362 | 0.847 | 0.921 | 0.757 | 0.792 | 0.373 | 0.395 | 0.306 | 0.945 | 0.767 | 0.822
8 | 201T | 1.15 | 1.12 | 1.11 | 1.14 | 1.04 | 1.06 | 1.07 | 0.993 | 0.637 | 0.544 | 0.509 | 0.532 | 0.697 | 0.769 | 0.718 | 1.1 | 1.08 | 0.895
9 | NCI-H460 | 1.29 | 1.27 | 1.03 | 1.19 | 1.07 | 1.14 | 0.819 | 0.839 | 0.574 | 0.722 | 0.452 | 0.512 | 0.163 | 0.156 | 0.061 | 0.793 | 1.05 | 0.997
10 | NCI-H661 | 0.741 | 0.752 | 0.747 | 0.676 | 0.983 | 1.22 | 0.917 | 0.843 | 0.983 | 0.943 | 0.689 | 0.685 | 0.511 | 0.622 | 0.409 | 0.959 | 1.1 | 1
11 | HCC-15 | 1.06 | 1.16 | 1.05 | 1.02 | 0.961 | 0.956 | 0.775 | 0.751 | 0.639 | 0.73 | 0.629 | 0.578 | 0.393 | 0.365 | 0.357 | 1.02 | 1.01 | 0.86
12 | LCLC-103H | 1.28 | 1.11 | 1.03 | 0.96 | 1.02 | 1.1 | 1.08 | 1.02 | 0.451 | 0.496 | 0.511 | 0.484 | 0.699 | 0.683 | 0.659 | 0.644 | 0.797 | 0.608
13 | NCI-H441 | 0.608 | 0.254 | 0.288 | 1.13 | 0.873 | 0.736 | 0.572 | 0.795 | 0.679 | 0.764 | 0.582 | 0.534 | 0.348 | 0.345 | 0.301 | 1.12 | 0.907 | 0.868
14 | EPLC-272H | 1.33 | 1.07 | 0.963 | 1.01 | 0.831 | 1.13 | 0.954 | 0.904 | 0.353 | 0.385 | – | 0.283 | 0.275 | 0.281 | 0.278 | 0.558 | 0.684 | 0.472
